For the experiment, the system named is HCT-116. Description: In vitro cytotoxicity against human colon carcinoma cell line HCT116. It is filed as functional, cell-based.

The term IC50 denotes the midpoint of a concentration-inhibition curve. Read a low IC50 as higher potency. Regarding `O=C1C2=CCC[C@@]1(O)C#C/C=C\C#C[C@@H]2O`, the 50% inhibitory concentration (IC50) was 100 nM.

The values above are taken from ChEMBL document CHEMBL1126511, “Protein damage caused by a synthetic enediyne core” (Bioorg Med Chem Lett, 1993).
